Tests used:
[1] = biological target: T1, MBLAC2 (Homo sapiens, UniProt Q68D91); assay: chemoproteomic competition assay (MV4-11/SW620 lysate, iA/iC/iQ beads, MS readout); type: binding; details: for MBLAC2 binding / Kd: nine-dose competition assay; for EC50: focused library profiling; for Kd: read-out: KDapp MBLAC2
T1 construct: incubated at increasing concentrations with a mixture of lysates of MV4–11 and SW620 cells; endogenous in cells; host or cells: mixed lysate of MV4-11 and SW620 cells
T1 sequence (Q68D91 1-279): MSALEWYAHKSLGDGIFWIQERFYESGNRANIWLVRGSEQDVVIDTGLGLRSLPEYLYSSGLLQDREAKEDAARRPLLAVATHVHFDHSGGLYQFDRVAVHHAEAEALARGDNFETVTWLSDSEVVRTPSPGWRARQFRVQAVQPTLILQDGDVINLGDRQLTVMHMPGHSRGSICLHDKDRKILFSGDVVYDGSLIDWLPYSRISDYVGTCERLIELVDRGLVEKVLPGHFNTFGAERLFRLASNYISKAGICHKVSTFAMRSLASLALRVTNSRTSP
Procedure: (§1) MBLAC2 is a metalloenzyme predicted to harbor one or two Zn^2+ ions in its active site. […] In this assay, compounds of interest are incubated at increasing concentrations with a mixture of lysates of MV4–11 and SW620 cells. The compound-treated lysates are then mixed with bead-immobilized hydroxamic acid-containing compounds iA, iC, and iQ (immobilized Quisinostat), which pull down compound-binding proteins such as HDACs, MBLAC2, ISOC1/2, ALDH2, and GATD3A (Figure a) that can be identified and quantified by mass spectrometry (MS). Proteins targeted by the library compounds in a preincubation step are prevented from being pulled down by the immobilized probes, leading to a dose-dependent reduction in MS signal. Initially, 12 metal-chelating compounds were profiled at two concentrations (10 μM and 100 μM) (Figure S3).
(§2) Chemoproteomic competition assays
Sample preparation. For the MBLAC2 and HDAC inhibitor competition assay, the generation of affinity matrices, lysate generation, pulldown assay, and sample preparation were performed as described in […]
detail in REF1. […]
(§3) LC-MS/MS. The different sample types were measured with different LC-MS/MS settings. MBLAC2 2-dose competition assays were measured with the Lumos1 setup, MBLAC2 9-dose competition assays were measured with the Lumos2 setup, and kinobeads assays were measured with the Eclipse setup.
(§4) Peptides were analyzed via LC–MS/MS on a Dionex Ultimate3000 nano HPLC coupled to either one of two Orbitrap Fusion Lumos mass spectrometers, or to an Orbitrap Eclipse mass spectrometer, operated via the Thermo Scientific Xcalibur software.
(§5) In the all setups, peptides were loaded on a trap column (100 μm × 2 cm, packed in-house with Reprosil-Gold C18 ODS-3 5 μm resin, Dr. Maisch, Ammerbuch) and washed with 5 μL/min solvent A (0.1% formic acid in HPLC grade water) for 10 min. Peptides were then separated on an analytical column (75 μm × 40 cm, packed in-house with Reprosil-Gold C18 3μm resin, Dr. Maisch, Ammerbuch) using a 50 min gradient ranging from 4 to 32% solvent B (0.1% formic acid, 5% DMSO in acetonitrile) in solvent A (0.1% formic acid, 5% DMSO in HPLC grade water) at a flow rate of 300 nL/min.
(§6) The mass spectrometers were operated in data-dependent mode, automatically switching between MS1 and MS2 spectra. MS1 spectra were acquired over a mass-to-charge (m/z) range of 360–1300 m/z at a resolution of 60,000 (at m/z 200) in the Orbitrap using a maximum injection time of 50 ms and an automatic gain control (AGC) target value of 4e5.
(§7) In Lumos settings, up to 12 peptide precursors were isolated in (isolation width of 1.2 Th for Lumos1 and 1.7 for Lumos2, maximum injection time of 75 ms, AGC value of 1e5 for Lumos1 and 2e5 for Lumos2), fragmented by HCD using 30% normalized collision energy (NCE) and analyzed in the Orbitrap at a resolution of 15,000 (Lumos2) or 30,000 (Lumos1). The dynamic exclusion duration of fragmented precursor ions was set to 20 s (Lumos1) or 30 s (Lumos2). In Eclipse measurements, a cycle time of 2 s was chosen. Peptides were isolated in the quadrupole with an isolation offset of 1.2 (isolation width of 1.2 Th, maximum injection time of 54 ms, AGC target of 200%) and fragmented by HCD with an NCE of 30% and analyzed in the Orbitrap at a resolution of 30,000. The dynamic exclusion on the Eclipse was set to 20 s.
Data analysis. The data analysis of MBLAC2/HDAC inhibitor competition assays was performed as described in detail in REF1. LFQ intensity values were used for the calculation of relative residual binding to the affinity matrix. […]

[2] = system: cell proliferation or fitness; assay: alamar blue cell metabolic activity assay with MBLAC2 inhibitors; type: cell-based; details: 72h, five concentrations
Excerpt: Our earlier observation that MBLAC2 inactivation leads to the upregulation of extracellular vesicles (EVs), combined with evidence of MBLAC2’s association with late endosomes and membrane processes, , prompted us to hypothesize that MBLAC2 inactivation might impair endocytosis. To test this hypothesis, we measured clathrin-mediated endocytosis of fluorescently labeled transferrin (TF) in the presence and absence of MBLAC2 inhibitors. […] Thus, the precise biological roles of MBLAC2 remain elusive. However, we anticipate that the selective compounds identified in this study will serve as valuable tools for elucidating the cell biological functions of MBLAC2 in future research.
Fig. S6| Characterization of MBLAC2 inhibitors. a, 9-dose competition assay of MBLAC2 selective inhibitors KV-65 and KV-79. b, Impact of MBLAC2i on cell metabolic activity assessed in an alamar blue assay. Cells were treated in triplicates with five concentrations of MBLAC2i and a DMSO vehicle control for 72h. c, Clathrin-mediated endocytosis assay based on measurement of fluorescent transferrin uptake. Dynasore and Pitstop-2 serve as positive controls. HeLa cells were pre-incubated with 100 µM Dynasore, 2 µM KV65, or 2 µM KV79 for 20 h before the microscopy readout. 30 µM Pitstop-2 was added only for 15 min before readout. […]

[3] = system: HeLa cells; assay: clathrin-mediated endocytosis of fluorescently labeled transferrin; type: cell-based; details: HeLa cells, 2 µM, 20 h
Procedure: Given that local GTP production by NME1 and NME2 is essential for fueling dynamin-driven endocytosis, we investigated the effect of KV-50-mediated NME1/2 inhibition on fluorescent transferrin (TF) uptake in cells. HeLa cells were treated with KV-50 or known endocytosis inhibitors (Pitstop-2 and Dynasore), and surface-bound and internalized fluorescent TF were quantified.

[4] = system: compound-binding proteins such as HDACs, MBLAC2, ISOC1/2, ALDH2, and GATD3A; assay: chemoproteomic competition assay, proteome-wide target binding profile; set-up: species or system human; details: dose-dependent competition
Procedure: as §1, §2
Sample preparation. For the MBLAC2 and HDAC inhibitor competition assay, the generation of affinity matrices, lysate generation, pulldown assay, and sample preparation were performed as described in detail in REF1. For the kinobeads assay, the generation of affinity matrices, lysate generation, pulldown assay, and sample preparation were performed as described in detail in REF2.
as §3, §4, §5, §6
as §7, with “HCD with an NCE of 30% and analyzed in the Orbitrap at a resolution of 30,000. The dynamic exclusion on the Eclipse was set to 20 s.” left out

[5] = biological target: recombinant HINT1 (hHint1) (Homo sapiens, UniProt P49773); assay: HINT1 enzyme activity assay (TrpA hydrolysis, fluorescence); type: biochemical; details: hHint1 0.002 µM, TrpA 0.5 µM, 25 °C
recombinant HINT1 (hHint1), sequence (P49773 whole entry): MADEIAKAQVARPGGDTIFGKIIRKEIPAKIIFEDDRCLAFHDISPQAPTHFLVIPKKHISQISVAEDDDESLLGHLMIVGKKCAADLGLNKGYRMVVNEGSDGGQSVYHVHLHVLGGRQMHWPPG
Excerpt: While the biologically relevant substrates of HINT1 have not been clearly elucidated, the protein has been implicated in opioid receptor signaling, − regulation of the melanoma-associated transcription factor MITF, , and DNA damage repair. These functions position HINT1 as a potential pharmacological target for treating conditions such as opioid resistance or melanoma. The only reported HINT1-targeting pharmacophores are nucleoside-based nonhydrolyzable substrate analogs, such as the carbamate TrpGC (Figure a). , We evaluated the inhibitory potential of KV-24 and KV-30 in enzyme activity assays using recombinant HINT1. […] This discrepancy could be attributed to reduced affinity for the recombinant enzyme due to the absence of post-translational modifications (PTMs), cofactors, or interaction partners that enhance drug binding. Alternatively, it might result from substrate dilution in the lysate, whereas high substrate concentrations in the enzyme activity assay require the inhibitor to compete more effectively.
Mouse brain proteomics – LC-MS/MS. Proteome analysis of brain mouse tissue samples was performed on a micro-flow LC timsTOF HT setup described in detail in REF14. Liquid chromatography in micro-flow mode was performed on a Vanquish Neo UHPLC System (Thermo Fisher Scientific) at a flow rate of 50 µL/min. […] 10 µg of peptide mix was injected and analyzed using a 58 min gradient starting at 1% B up to 45% B (1 h method). […]
Mouse proteomics data analysis. The data files were analyzed with DIA-NN 1.8.1. […] The resulting protein group tables were further analyzed by Perseus 1.6.2.2. […]
CME of transferrin and confocal microscopy analyses.For transferrin uptake experiments HeLa cells were seeded on Matrigel-coated coverslips, and incubated with 0.1 % DMSO, or with 100 µM dynasore, 20 µM KV50, 2 µM KV65, or 2 µM KV79 in media containing 10% FCS at 37°C for 20 h. […] All inhibitor treatments were performed in duplicate, to enable quantification of surface levels of transferrin receptors, and to assess the capability of transferrin receptor endocytosis. […]

[6] = system: Toxoplasma gondii; set-up: method as in PMID 33360687, PMID 35483428, PMID 38431113, PMID 29414107; details: in human host cells; cited from earlier work

Q: With `O=C(NO)c1ccc(Cn2c(=O)n(CCc3ccccc3)c(=O)c3ccccc32)cc1` [Compound J22352] as the compound, how does the “MBLAC2 binding” value [1] read?
A: potently bound MBLAC2

Q: For `O=C(NO)c1ccc(CN2c3ccccc3Sc3ccccc32)cc1` [KV-46], which EC50 [1] is on record?
A: 83 nM

Q: For `O=C(NO)c1ccc(CN2c3ccccc3S(=O)(=O)c3ccccc32)cc1` [KV-65], which EC50 [1] is on record?
A: 37 nM

Q: What about the “concentration up to which cell proliferation or fitness not affected” value [2] of the same compound?
A: > 10 µM

Q: What about the “TF uptake” value [3] of the same compound?
A: not statistically significant

Q: With `O=C(NO)c1ccc(CN2c3ccccc3Sc3ccc(C(F)(F)F)cc32)cc1` [KV-79] as the compound, how does the “selectivity compared to HDACs” value ([1]; abstract) read?
A: over 60 fold

Q: And the EC50 [1]?
A: 25 nM

Q: What about the “concentration up to which cell proliferation or fitness not affected” value [2] of the same compound?
A: > 10 µM

Q: What about the “TF uptake” value [3] of the same compound?
A: not statistically significant

Q: For `O=C(CCCCCCC(=O)NO)NO` [SBHA, suberoyl-bis-hydroxamic acid, reference compound], which “targets / off-targets bound” value [4] is on record?
A: bind off-targets such as ISOC1/2, GATD3A, and ALDH2

Q: Which Kd [1] does the source give for `CN(CC(=O)N(Cc1ccc(C2CCCCC2)cc1)c1ccc(C(=O)NO)cc1)S(=O)(=O)c1c(F)c(F)c(F)c(F)c1F` [SH5–07] here?
A: ~800 nM

Q: What does the source list for `O=C(NO)c1ccc(CN2CCCc3cc(Cl)ccc32)cc1` [SW-100]?
A: MBLAC2 binding [1]: potently bound MBLAC2; Kd [1]: 75 nM

Q: For `Cn1c(CCCCCCC(=O)NO)nc2cc(N(CCCl)CCCl)ccc21` [Tinostamustine, reference compound], which “targets / off-targets bound” value [4] is on record?
A: bind off-targets such as ISOC1/2, GATD3A, and ALDH2

Q: For `Nc1nc2c(ncn2[C@@H]2O[C@H](COC(=O)NCCc3c[nH]c4ccccc34)[C@@H](O)[C@H]2O)c(=O)[nH]1` [TrpGC, reference compound], which IC50 [5] is on record?
A: 9100 nM

Q: With `CN1CCc2c(c3ccccc3n2Cc2ccc(C(=O)NO)cc2)C1` [Tubastatin A, reference compound] as the compound, how does the “inhibition of proliferation of protozoans” value [6] read?
A: potently inhibit the proliferation

Q: With ACY-1083 as the compound, how does the “MBLAC2 binding” value [1] read?
A: potently bound MBLAC2

Reference: publication PMC12186257, “Serendipitous and Systematic Chemoproteomic Discovery of MBLAC2, HINT1, and NME1‑4 Inhibitors from Histone Deacetylase-Targeting Pharmacophores” (ACS Chemical Biology, 2025)
